{
  "source": "patent US6800750B1",
  "about": "“Mc1-1 gene regulatory elements and a pro-apoptotic mc1-1 variant” (Dartmouth College, priority 1999, dated 2004)",
  "molecules": {"B1": {"name": "Mcl-1s/ΔTM: 271 amino acid pro-apoptotic Mcl-1 splice variant, SEQ ID NO: 3, exon 1 joined to exon 3 (protein, listed as Homo sapiens)", "chain": "MFGLKRNAVIGLNLYCGGAGLGAGSGGATRPGGRLLATEKEASARREIGGGEAGAVIGGSAGASPPSTLTPDSRRVARPPPIGAEVPDVTATPARLLFFAPTRRAAPLEEMEAPAADAIMSPEEELDGYEPEPLGKRPAVLPLLELVGESGNNTSTDGSLPSTPPPAEEEEDELYRQSLEIISRYLREQATGAKDTKPMGRSGATSRKALETLRRVGDGVQRNHETVFQGWVCGVLPCRGPRRWHQECAAGFCRCCWSRSWFGISNKIALL"}},
  "key": {"[1]": {"tested_on": "human Mcl-1 5′-flanking sequence", "assay": "Transient luciferase expression assay of Mcl-1 reporter plasmids in K-562 cells", "type": "cell-based", "description": "A 1.7 kilobase (kb) XbaI/XmaI human Mcl-1 genomic fragment representing nucleotide residues −1656 to +160, where +1 denotes the major transcriptional start site, along with a 14 base pair (bp) adapter ligated to its 3′ end to place the luciferase gene in the correct reading frame, was inserted into NheI and HindIII digested pGL2-Basic luciferase reporter vector (Promega; Madison Wis.), yielding p(−1656)Mcl-1luc.\nA series of 5′-deleted plasmids were constructed by double digestion of p(−1656)Mcl-1luc with SmaI, which cuts just upstream of the Mcl-1 insert, and restriction enzymes known to cut at unique sites within the Mcl-1 insert. […] Additional plasmids were constructed using PCR, including p(−107)Mcl-1luc, p(−51)Mcl-1luc, and p(+11)Mcl-1luc; the PCR products were sequenced to confirm their identity.\nSpecific mutations were introduced into the p(−162)Mcl-1luc plasmid using a two stage PCR method of Chen and Boxer (supra, 1995). The Ets site at nucleotides −129 to −121 was converted from CCGGAAGC (SEQ ID NO: 4) to CCTTAAGC (SEQ ID NO: 5;ΔEts); the Sp1 site at nucleotides −118 to −113 was converted from CCGCCC (SEQ ID NO: 6) to CTGACC (SEQ ID NO: 7;ΔSp1); and the SRE at nucleotides −106 to −97 was converted from CCTTTTATGG (SEQ ID NO:8) to CCTTCGGCTG (SEQ ID NO: 9;ΔSRE); altered nucleotides are indicated in bold type. All mutations were verified by sequencing. The PCR products containing the desired mutations were digested with BstEII and EcoRI, and ligated into the p(−162)Mcl-1luc plasmid, which had been digested with the same enzymes.\nElectroporation was carried out with K-562 cells using the following protocol, which was based on preliminary experiments aimed at optimizing luciferase activity. Cells were washed twice and resuspended in PBS (5×10^6 cells in 0.5 ml) in the presence of 10 μg luciferase reporter plasmid, along with the pCMVhGH internal control plasmid used in most experiments (10 μg). After incubation on ice for 10 min, cells were electroporated (960 μF and 280 V; Bio-Rad Gene Pulser; Hercules Calif.), placed on ice for 15 min, then incubated at 37° C. (1×10^5 cells/ml) in Iscove's Modified Dulbecco's medium supplemented with 10% FBS, 100 units/ml penicillin, and 100 μg/ml streptomycin. After 17 hr, the cell suspension was divided into two portions, one of which was left untreated and the other of which was exposed to 1.7×10^−9 M TPA, which increased Mcl-1 expression in K-562 cells in a manner equivalent to that observed with 5×10^−10 TPA in ML-1 cells (Pahl et al., Expt. Hematol. 19:1038-1041 (1991), which is incorporated herein by reference). After 7 hr of exposure to TPA, when induction was at or near a peak level, cells were washed with PBS, then assayed in triplicate for luciferase activity (relative light units; Brasier et al., In “Current Protocols in Molecular Biology (Ausubel et al., eds.; John Wiley & Sons, N.Y. 1995), which is incorporated herein by reference; see pages 9.7.12-9.7.21) using a Microlite ML2250 Microtiter plate luminometer (Dynatech Laboratories; Chantilly Va.).\nIn most experiments, a human growth hormone reporter plasmid, pCMVhGH (10 μg), was used as a control for transfection efficiency. pCMVhGH yielded a linear increase in activity upon transfection with 2 to 10 μg plasmid, where activity with 2 μg of plasmid was near the limit of sensitivity of the hGH assay, but activity with 5 to 10 μg was sufficiently above background to be accurately quantified.\nThe experimental design, wherein an aliquot of cells electroporated with a test plasmid is divided into two portions, one of which was exposed to TPA and the other of which was not, was selected because CMV-based plasmids are subject to induction by TPA. […] Luciferase activity in both portions of cells was normalized to hGH production (assayed in triplicate in the portion of the sample not exposed to TPA)."}, "Mcl-1 [2]": {"tested_on": "Mcl-1", "assay": "Endogenous Mcl-1 expression in ML-1 cells exposed to inducers and inhibitors", "type": "cell-based, human"}, "ML-1 cells": {"tested_on": "ML-1 cells", "conditions": "cited from earlier work"}, "Mcl-1 [3]": {"tested_on": "Mcl-1", "conditions": "cited from earlier work"}, "Erk-1 and Erk-2": {"tested_on": "Erk-1 and Erk-2", "assay": "Phosphorylation state of MAP kinase proteins in ML-1 cells", "type": "cell-based, human"}, "Hela cells": {"tested_on": "Hela cells", "assay": "Transient transfection cell death assay in Hela cells (β-gal marker, morphology scoring)", "type": "cell-based, human", "protocol": "Two types of expression constructs were prepared for use in transfection into mammalian cells. In one set of constructs, Mcl-1 or the Mcl-1s/ΔTM variant were expressed in the pCR3.1 vector; in the second set of constructs, Mcl-1 was fused to green fluorescent protein (GFP). The Mcl-1 RT-PCR reaction products from the F4/R4 primer pair reactions (SEQ ID NOS: 15 and 17, respectively; cloned in pCR3.1) were digested with KpnI (a KpnI site is present in the F4 primer; SEQ ID NO: 15) and HindIII, as was full length Mcl-1(Mcl-1 clone p3.2 in pBluescriptII SK); Kozopas et al., supra, 1993) and the resulting 5′ region of the cDNA was isolated and ligated into pCR3.1 to yield full length Mcl-1 and Mcl-1s/ΔM. […]\nThe pCR3.1-based Mcl-1 clones were transiently transfected into subconfluent monolayers of Hela cells in 12 well plates using SUPERFECT (Qiagen). […] Forty hr after transfection, cells were fixed, stained for β-gal activity, and analyzed microscopically to assess cell morphology. Transfection experiments were performed in a double blind manner and cells were scored either as having a normal, viable morphology (flat, healthy cells) or an abnormal morphology characteristic of dying cells (dense, rounded, detaching cells). All blue staining cells in each dish were counted and the results were expressed as percentages of cells with viable versus dying phenotypes."}},
  "note": "Read-outs that look alike come from different tables or passages of the source.",
  "data": [
    {"molecule": "COc1cccc(-c2cc(=O)c3ccccc3o2)c1N", "note": "[PD 98059]", "values": [
      {"measurement": "decrease of TPA-induced luciferase activity", "setting": "[1]; K-562 cells, 1654 base pair reporter, PD 98059 prior to TPA exposure", "value": 78, "unit": "%"},
      {"measurement": "effect on TPA-induced increase in luciferase activity", "setting": "[1]; K-562 cells, FIG. 2C", "value": "substantially, but not completely, inhibited"},
      {"measurement": "effect on basal luciferase activity", "setting": "[1]; K-562 transfected cells, absence of TPA", "value": "caused a decline in basal activity"},
      {"measurement": "effect on up-regulation of Mcl-1 expression by TPA, colchicine and vinblastine", "setting": "Mcl-1 [2]; ML-1 cells", "value": "prevented"},
      {"measurement": "cell death", "setting": "ML-1 cells; ERK inhibitor applied alone", "value": "not accompanied by cell death"},
      {"measurement": "cell death", "setting": "ML-1 cells; ERK inhibitor applied in conjunction with TPA", "value": "cells died by apoptosis"},
      {"measurement": "basal Mcl-1 expression relative to value in the absence of PD 98059", "setting": "Mcl-1 [3]; endogenously expressing cells, 8.5 hr assay period", "value": "about 25%"},
      {"measurement": "induction of endogenous Mcl-1 by TPA in the presence of PD 98059", "setting": "Mcl-1 [3]; endogenously expressing cells", "value": "about 3.5 fold"}
    ]},
    {"molecule": "CCCCCCCCCCCCCC(=O)O[C@@H]1[C@@H](C)[C@@]2(O)[C@@H](C=C(CO)C[C@]3(O)C(=O)C(C)=C[C@@H]23)[C@@H]2C(C)(C)[C@]12OC(C)=O", "note": "[TPA, 12-O-tetradecanoylphorbol acetate]", "values": [
      {"measurement": "increase in reporter gene activity in response to TPA", "setting": "[1]; 162 bp segment of human Mcl-1 5′-flanking sequence", "value": "approximately 10 fold"},
      {"measurement": "induction of luciferase activity by TPA", "setting": "[1]; K-562 cells, Mcl-1-luciferase reporter constructs, test of cell lines", "value": "about 10 fold"},
      {"measurement": "increase in luciferase activity after treatment with TPA", "setting": "[1]; K-562 cells, luciferase reporter driven by 1654 base pair segment of Mcl-1 5′ flanking region", "value": "approximately 8 fold"},
      {"measurement": "increase in activity in the presence of TPA over reduced basal value", "setting": "[1]; K-562 cells, p(−107)Mcl-1luc and p(−51)Mcl-1luc", "value": "approximately 3.5 fold"},
      {"measurement": "induction by TPA", "setting": "[1]; K-562 cells, p(−162)Mcl-1luc site mutation experiment (FIG. 3C)", "value": 9, "unit": "fold"},
      {"measurement": "increase in luciferase activity in the presence of TPA", "setting": "[1]; K-562 cells, p(−1656)Mcl-1luc", "value": "about 10 fold"},
      {"measurement": "fold-induction by TPA", "setting": "[1]; K-562 cells, wild-type plasmid, additional experiments", "value": "about 11 fold"},
      {"measurement": "fold-induction by TPA above reduced basal value", "setting": "[1]; K-562 cells, ΔSRE/ΔEts plasmid", "value": "about 4 fold"},
      {"measurement": "induction of luciferase activity by TPA", "setting": "[1]; p(−162)Mcl-1luc and p(−1663)Mcl-1luc, absence of pCMVhGH", "value": "about 13.5 fold"},
      {"measurement": "induction of luciferase activity by TPA", "setting": "[1]; p(−162)Mcl-1luc and p(−1663)Mcl-1luc, presence of pCMVhGH", "value": "about 10.5 fold"},
      {"measurement": "Mcl-1 expression", "setting": "Mcl-1 [2]; ML-1 cells", "value": "induced"},
      {"measurement": "phosphorylation of Erk-1 and Erk-2", "setting": "Erk-1 and Erk-2", "value": "increased phosphorylation"},
      {"measurement": "time at which increase in Mcl-1 mRNA is detectable", "setting": "Mcl-1 [3]; ML-1 cells", "value": "≤ 1", "unit": "h"},
      {"measurement": "Mcl-1 mRNA level relative to peak value", "setting": "Mcl-1 [3]; ML-1 cells, within 1 day", "value": "about 50%"},
      {"measurement": "Mcl-1 level with TPA above low basal level", "setting": "Mcl-1 [3]; TPA without ERK inhibitor", "value": "~10", "unit": "fold"}
    ]},
    {"molecule": "COc1cc2c(c(OC)c1OC)-c1ccc(OC)c(=O)cc1[C@@H](NC(C)=O)CC2", "note": "[colchicine]", "values": [
      {"measurement": "Mcl-1 expression", "setting": "Mcl-1 [2]; ML-1 cells", "value": "induced"}
    ]},
    {"molecule": "CC(=O)O[C@H]1C(=O)[C@@]2(C)[C@H]([C@H](OC(=O)c3ccccc3)[C@]3(O)C[C@H](OC(=O)[C@H](O)[C@@H](NC(=O)c4ccccc4)c4ccccc4)C(C)=C1C3(C)C)[C@]1(OC(C)=O)CO[C@@H]1C[C@@H]2O", "note": "[paclitaxel]", "values": [
      {"measurement": "effect of pretreatment on increase in Mcl-1 expression produced by TPA", "setting": "Mcl-1 [2]", "value": "not"},
      {"measurement": "effect of pretreatment on increase in Mcl-1 expression produced by colchicine or vinblastine", "setting": "Mcl-1 [2]", "value": "blocked"}
    ]},
    {"molecule": "CC[C@]1(O)C[C@@H]2CN(CCc3c([nH]c4ccccc34)[C@@](C(=O)OC)(c3cc4c(cc3OC)N(C)[C@H]3[C@@](O)(C(=O)OC)[C@H](OC(C)=O)[C@]5(CC)C=CCN6CC[C@]43[C@@H]65)C2)C1", "note": "[vinblastine]", "values": [
      {"measurement": "Mcl-1 expression", "setting": "Mcl-1 [2]; ML-1 cells", "value": "induced"}
    ]},
    {"molecule": "B1", "values": [
      {"measurement": "killing of cells, quantitated by double blind scoring of blue staining cells", "setting": "Hela cells", "value": "as effective as Bax"}
    ]}
  ]
}
